Literature values in publication PMC6492937.

assay: not told

| log partition octanol / water [log10] | SMILES |
| --- | --- |
| 2.59 | CCCCCCCC(=O)N(C)C |
| 4.04 | CCCCCCCCN1CCCCCC1=O |
| 3.05 | CCCCCCCCN1CCCC1=O |
| 3.41 | CCCCCCCCN1CCCCC1=O |
| 2.86 | CCCCCCCCCC(=O)N1CC(O)CC1C(=O)NCC (stereo not drawn) |
| 2.3 | CCCCCCN1CCCCC1=O |
| 1.02 | CCCCN1CCCC1=O |
| 6.28 | CCCCCCCCCCCCN1CCCCCC1=O |
| 1.89 | CCCCCCC(=O)N(C)C |
| 2.1 | CCCCCCN1CCCC1=O |
| 1.80 | CCCCN1CCCCCC1=O |
| 3.00 | CCCCCCCCC(=O)N(C)C |
| 2.91 | CCCCCCN1CCCCCC1=O |
| 1.39 | CCCCN1CCCCC1=O |
| 1.36 | CCCCCC(=O)N(C)C |
